PubChem BioAssay (NCI)
“And” between values parts separate entries of the source, which are not always exact repeats. Equal values may be shown once.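 Dose response: 5 concentrations. Exposure: 48 h. Format: 96-well plates. Endpoint: linear interpolation; highest concentration if not reached. GI50 marks 50% less growth. At the TGI there is no net growth.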

Columns and labels:
Assay in all cases: growth of human tumour cells (NCI), 48 h
[1] = system: PC-3 prostate
[2] = system: MCF7 breast
[3] = system: HS 578T breast
[4] = system: MDA-MB-231 breast
[5] = system: DMS 273 small cell lung
[6] = system: SNB-78 CNS
[7] = system: DMS 114 small cell lung
[8] = system: MDA-N

SMILES	GI50 [1]	TGI [1]	GI50 [2]	TGI [2]	GI50 [3]	TGI [3]	GI50 [4]	TGI [4]	TGI [5]	TGI [6]	GI50 [7]	TGI [7]	GI50 [5]	TGI [8]	GI50 [6]
C=C1CC2(OC1=O)C(=O)N(CCCN1C(=O)C3(CC(=C)C(=O)O3)c3ccccc31)c1ccccc12 (configuration not stated)	2790 nM	10.3 µM	1400 nM	4.45 µM	3430 nM	51.5 µM	1650 nM	3.43 µM							
Cc1ncc(C(=O)Nc2ccc(CN3CCN(C)CC3)c(C(F)(F)F)c2)cc1C#Cc1cnc(NC2CC2)c2ncccc12	597 nM	1.17 µM	605 nM	1.18 µM	1190 nM	4.44 µM	582 nM	1.12 µM							
CCSc1nc(N)c2cn[nH]c2n1	19800 nM	63.5 µM	23000 nM	60.3 µM	22200 nM	70.1 µM	20200 nM	69.8 µM							
O=C(/C=C/c1ccccc1)CC(c1ccccc1)N1CCOCC1 (configuration not stated)	4540 nM	19.1 µM	4680 nM	80.3 µM	4250 nM	55 µM	2640 nM	6.95 µM							
CC1CCCc2c1nn(C(=O)/C=C(\N)c1ccccc1)c2N (configuration not stated)	6540 nM	> 100 µM	7260 nM	> 100 µM	22400 nM	> 100 µM	28300 nM	> 100 µM							
CCOC(=O)C(=O)Nc1ccccc1C(F)(F)F									> 100 µM	> 100 µM					
COc1ccc(-c2nnc(N3CCN(C(=O)CN4CCN(c5ccc(OC)cc5)CC4)CC3)nc2-c2ccc(OC)cc2)cc1	8490 nM	26.9 µM	1760 nM	3.56 µM	2840 nM	9.2 µM	11700 nM	41.2 µM							
CNC(=O)c1cc2c(Oc3ccc(NC(=O)C4(C(=O)Nc5ccc(F)cc5)CC4)cc3)ccnc2cc1OC	3090 nM	> 100 µM	2550 nM	> 100 µM	1110 nM	4.69 µM	2410 nM	> 100 µM							
Cc1nc(Nc2n[nH]c3c2CN(C(=O)N[C@H](CN(C)C)c2ccccc2)C3(C)C)c2sccc2n1	242 nM and 41 nM	> 6.33 µM and 9.76 µM	5.23 nM and < 10 nM	> 5.5 µM and 6.46 µM	144 nM and 469 nM	> 5.44 µM and 14.7 µM	85.6 nM and 34.1 nM	1.98 µM and 1.95 µM							
Cn1c([N+](=O)[O-])cnc1/C=C1\Oc2cc(Cl)ccc2C1=O	1360 nM	> 24.1 µM	712 nM	13.3 µM	1690 nM	> 24.4 µM	940 nM	> 28.5 µM							
O=S1(=O)NCCCN1CCNc1nccc(-c2c(-c3cccc(O)c3)nc3sccn23)n1	45000 nM	> 100 µM	29500 nM	> 100 µM	10800 nM	> 81.4 µM	16100 nM	> 100 µM							
CCN(CC)CCNC(=O)c1c(C)[nH]c(/C=C2\C(=O)Nc3ccc(F)cc32)c1C	1840 nM and 3820 nM and 2900 nM	> 10 µM and 20 µM and 14.5 µM	1930 nM and 2230 nM and 2050 nM	> 10 µM and 4.88 µM and 11.9 µM	3010 nM and 3570 nM and 2400 nM	> 10 µM and 17.7 µM and 15.3 µM	7200 nM and 3260 nM and 3520 nM	> 10 µM and 6.68 µM and 14.5 µM							
CC(=O)[CH-]C(C)=O.[CH2-]C.[CH2-]C.[Tl+3]									> 100 µM		> 100 µM	> 100 µM	> 100 µM		
Cn1c(/C(C#N)=C/c2ccc3ccccc3c2)cc2ccccc21	220 nM	> 100 µM	94.6 nM	> 100 µM	162 nM	> 100 µM	460 nM	> 100 µM							
C=CCSc1nc2ccccc2c(=O)n1Cc1ccco1		> 100 µM		> 100 µM		> 100 µM		> 100 µM						> 100 µM	
CCC1=C[C@@H]2CN(C1)Cc1c([nH]c3ccccc13)[C@@](C(=O)OC)(c1cc3c(cc1OC)N(C)[C@H]1[C@@](O)(C(=O)OC)[C@H](OC(C)=O)[C@]4(CC)[C@@H]5C[C@@H]5CN5CC[C@]31[C@@H]54)C2	< 5 nM	6.54 µM and 15 µM	< 5 nM	5.44 µM and 12.6 µM			< 5 nM and 33.5 nM								
C[C@H](Cn1ncnn1)Nc1ncc2cc(Oc3ccc(F)cc3F)c(=O)n(C)c2n1	> 25000 nM	> 25 µM	> 25000 nM	> 25 µM	> 25000 nM	> 25 µM	> 25000 nM	> 25 µM							
O=S(=O)(CCOCc1ccc(-c2ccc3ncnc(Nc4ccc(OCc5cccc(F)c5)c(Cl)c4)c3c2)o1)c1ccccc1	> 25000 nM	> 25 µM	> 25000 nM	> 25 µM	> 11000 nM	> 25 µM	> 25000 nM	> 25 µM							
CC(=O)[O-].CC(=O)[O-].CC(=O)[O-].CC(=O)[O-].[Mo+2].[Mo+2]									> 100 µM	> 100 µM			> 100 µM		> 100 µM
CCC(=C(c1ccc(OCCCN(C)C)cc1)c1ccc(OCCCN(C)C)cc1)c1ccc(Cl)cc1	1090 nM	3.39 µM	216 nM	0.524 µM	2300 nM	5.35 µM	413 nM	1.07 µM							
COCCOCCOCc1n(Cc2ccc3ccccc3n2)c2ccccc2[n+]1Cc1ccc2ccccc2c1	352 nM	2.29 µM	317 nM	1.34 µM	964 nM	3.66 µM	356 nM	1.45 µM							
COc1cc2cnc3c4ccccc4ccc3c2cc1OC										> 100 µM		> 100 µM			
CC(=O)N[C@H](C(=O)N[C@@H](CCCNC(=N)N)C(=O)N[C@@H](CCCCN)C(=O)N[C@@H](CCCNC(=N)N)C(=O)N[C@]1(C)CCCCCC/C=C\CCC[C@@](C)(C(=O)N[C@@H](CCCNC(=N)N)C(=O)N[C@@H](CCC(=O)O)C(=O)N[C@@H](CC(C)C)C(=O)N[C@H](C(=O)N[C@@H](CCC(=O)O)C(N)=O)C(C)C)NC(=O)[C@H](CCC(N)=O)NC(=O)[C@H](CC(C)C)NC(=O)[C@H](CC(C)C)NC(=O)[C@H](CCCNC(=N)N)NC(=O)[C@H](CCCNC(=N)N)NC(=O)[C@H](CC(C)C)NC1=O)C(C)C	8240 nM	23.7 µM	2000 nM	32.9 µM	1460 nM	4.14 µM	3680 nM	> 50 µM							
O=C(c1ccc2ccccc2c1)c1c(C(F)(F)F)n([O-])c2ccc(Cl)cc2[n+]1=O			417 nM	1.43 µM	1790 nM	3.72 µM	1590 nM	3.21 µM							
O=C(O)CCC(NC(=S)S)C(=O)O.[Na+].[Zn+2] (configuration not stated)	> 50000 nM	> 50 µM	> 50000 nM	> 50 µM	> 50000 nM	> 50 µM	> 50000 nM	> 50 µM							
